US20030130484A1, “Inhibitors and disassemblers of fibrillogenesis” (priority 2001, published 2003)
Values after ≈ are worked out from the molar mass of the structure shown. “Also recorded” adds a separate entry of the source. Square brackets hold non-standard residues; d marks the D form. Peptide text beside a SMILES is read from it. NMeF = CN[C@@H](Cc1ccccc1)C(=O)O; PhLac = O=C(O)[C@@H](O)Cc1ccccc1; NMeL = CN[C@@H](CC(C)C)C(=O)O; NMeV = CN[C@H](C(=O)O)C(C)C; Hiv = CC(C)[C@H](O)C(=O)O; NMeA = CN[C@@H](C)C(=O)O

Columns and labels:
Aβ40 = Aβ40 (Homo sapiens, UniProt P05067); assay: Inhibition of Aβ40 fibrillogenesis, thioflavin T fluorescence assay; type: biochemical
Aβ40 fibrils [1] = molecular target: T1, Aβ40 fibrils (Homo sapiens, UniProt P05067)
COS cells = assay: COS cell uptake of fluorescent peptides, fluorescence microscopy and HPLC reisolation; type: cell-based
Method: (§1) Briefly, COS cells, were plated on coverslips, and incubated overnight in the presence of 4 μM to β40 μM of the Anth-A16-20 peptide. The cells on coverslips were then washed extensively with PBS, fixed for one hour with a 3.7% formaldehyde solution and mounted on a slide. The cells were examined by fluorescence microscopy using a DAPI filter.
as §1, with “COS” for “Briefly, COS”, “cells,” for “cells, were”, “coverslips, were” for “coverslips, and”, “to 40” for “to β40”, “the Anth-Aβ16-20” for “the Anth-A16-20”
In this experiment, Anth-Aβ16-20m was incubated with COS cells for eight hours. […] The cells were then lysed by the addition of Triton X-100 to 0.1% (v/v), and the lysate was analyzed by HPLC. The HPLC solvent system contained 0.1% trifluoroacetic acid in water (solvent A) and 0.1% trifluoroacetic acid in acetonitrile (solvent B). The peptide was eluted with a gradient of 0%-60% solvent B in 60 minutes. Fractions (1 ml) from the HPLC were collected and analyzed by fluorescence spectroscopy. The excitation and emission wavelengths were 346 nm and 435 nm, respectively.

[2] = Fibril formation by the peptide alone (electron microscopy, Congo Red); type: physicochemical
Method: After incubation of the inhibition and disassembly samples for the appropriate period of time, an aliquot of each sample was applied to a glow-discharge, 400-mesh, carbon-coated support film and stained with 1% uranyl acetate. Micrographs were recorded using Philips EM300 at magnifications of 17,000, 45,000 and 100,000.
(§2) The Congo Red binding assay was performed essentially as described in other publications (Klunk 1989). An aliquot of peptide solution containing 50 μg of peptide was added to 1 ml of a […] solution of Congo Red in 100 mM phosphate buffer, pH 7.4. The solution was incubated for 15 min at room temperature and then the absorbance was measured from 400-600 nm.
For the electron microscopy, aliquots of the inhibition and disassembly samples were applied to a glow-discharge, 400-mesh, carbon-coated support film and stained with 1% uranyl acetate. Micrographs were recorded using a Philips EM300 at magnifications of 17,000, 45,000 and 100,000.

[3] = Solubility in aqueous media and organic solvents
Aβ40 fibrils [4] = molecular target: T1, Aβ40 fibrils; assay: Electron microscopy of Aβ40 fibril inhibition and disassembly samples; type: biochemical; conditions: Aβ40 incubated with inhibitor peptide
Aβ1-40 fibrils = Aβ1-40 fibrils (Homo sapiens, UniProt P05067); assay: Congo Red binding assay of Aβ1-40 fibril inhibition and disassembly; type: biochemical
Method: as §2, with “Thioflavin T fluorescence is well known as a sensitive assay for the formation of amyloid fibrils. […] The Congo” for “The Congo”

chymotrypsin = chymotrypsin (Bos taurus, UniProt P00766); assay: Chymotrypsin digestion (protease resistance), RP-HPLC; type: in vitro ADME; conditions: 24 h at 37° C., 0.1 mg/ml chymotrypsin, pH 8.4
Method: Peptides were incubated for 24 h at 37 C with […] chymotrypsin. The percentage of undigested peptide was determined by RC-HPLC as described in the Materials and Methods. […] The arrow marks the position of the intact.
The peptides were dissolved in 0.5% ammonium bicarbonate at a concentration of 1.0 mg/ml. The pH of the solution was 8.4. Chymotrypsin (Worthington Biochemical Corporation) was added to the peptide solutions so that the final concentration was 0.1 mg/ml. Samples were incubated at 37° C. After twenty-four hrs, the samples were frozen and lyophilized. The samples were analyzed by reverse-phase HPLC using an analytical C 18 column (Rainin Microsorb) and eluted, using a 60 min gradient from 10-70% acetonitrile, containing 0.1% (v/v) TFA. The loss of intact peptide and appearance of fragments were quantitated by integration of the appropriate peaks. Results were expressed as a percent digestion of the peptides. In addition, identities of the peaks were confirmed by electrospray mass spectrometry.
The peptides were dissolved in 0.5% ammonium bicarbonate at a concentration of 1.0 mg/ml. […] After twenty-four hours, the samples were lyophilized and then analyzed by reverse-phase HPLC (Rainin-Microsorb C18 column) and a water-acetonitrile (0.1% (v/v) TFA) gradient (10-70% acetonitrile over one h).

Aβ40, sequence (P05067 672-711): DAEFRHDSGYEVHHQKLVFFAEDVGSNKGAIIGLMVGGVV
T1 sequence (P05067 672-711): as above
Aβ1-40 fibrils, sequence (P05067 672-711): as above

CC(=O)N[C@@H](CCCCN)C(=O)N[C@@H](CC(C)C)C(=O)N[C@H](C(=O)N[C@@H](Cc1ccccc1)C(=O)N[C@@H](Cc1ccccc1)C(N)=O)C(C)C [Ac-Aβ16-20, Ac-NH-KLVFF-CONH2, reference compound]
Inhibition of Fibrillogenesis ICmax (Aβ40): 100
Inhibition of Fibrilogenesis ICmax (Aβ40): 100%
disassembly of pre-formed Aβ40 fibrils (in words) (Aβ40 fibrils [1]; thioflavin fluorescence): disassembled pre-formed

CNc1ccccc1C(=O)N[C@@H](CCCCN)C(=O)N[C@@H](CC(C)C)C(=O)N[C@H](C(=O)N[C@@H](Cc1ccccc1)C(=O)N[C@@H](Cc1ccccc1)C(N)=O)C(C)C [Anth-Aβ16-20]
Inhibition of Fibrilogenesis ICmax (Aβ40): 100%
Fibril Disassembly ICmax (Aβ40 fibrils [1]): 100%
fluorescence of COS cells (COS cells; peptide concentration 20 μM): Strong fluorescence
fluorescence of COS cells (COS cells; peptide levels below 4 μM): Very weak fluorescence

CNc1ccccc1C(=O)N[C@@H](CCCCN)C(=O)N(C)[C@@H](CC(C)C)C(=O)N[C@H](C(=O)N(C)[C@@H](Cc1ccccc1)C(=O)N[C@@H](Cc1ccccc1)C(N)=O)C(C)C [Anth-Aβ16-20m, Anth-NH—K(me-L)V(me-F)F—CONH2]
Inhibition ICmax (Aβ40): 100
integrity of peptide internalized by COS cells and reisolated (HPLC) (COS cells; overnight incubation): not modified or degraded
fluorescence of COS cells (COS cells; peptide levels below 4 μM): Very weak fluorescence
intracellular fluorescence / permeation of COS cell membranes (COS cells; twelve hours incubation): permeates cell membranes

CC(=O)N[C@@H](CCCCN)C(=O)N[C@@H](CC(C)C)C(=O)N[C@H](C(=O)N[C@@H](Cc1ccccc1)C(=O)N[C@@H](Cc1ccccc1)C(N)=O)C(C)C [Aβ16-20, reference compound]
fibril formation by the peptide alone [2]: aggregates to form amyloid fibrils; also recorded: bind Congo Red
Inhibition ICmax (Aβ40): 89
solubility [3]: ~1000 µM (≈ 694 µg/mL)

CC(=O)N[C@@H](CCCCN)C(=O)N[C@@H](CC(C)C)C(=O)O[C@H](C(=O)N[C@@H](Cc1ccccc1)C(=O)O[C@@H](Cc1ccccc1)C(N)=O)C(C)C [Aβ16-20e, Ac—NH—KLesterVFesterF—CONH2] (Ac-KL[Hiv]F[PhLac]-NH2)
fibrillar material by electron microscopy, inhibition samples (Aβ40 fibrils [4]): Fibrillar material was not observed
fibril formation by the peptide alone [2]: does not cause a change in the absorbance spectrum of Congo Red
Inhibition ICmax (Aβ40): 100
Disassembly ICmax (Aβ40 fibrils [1]): 100
Congo Red spectrum, pre-formed Aβ1-40 fibrils to which inhibitor was added (Aβ1-40 fibrils; disassembly): identical to the control spectrum of Congo Red alone
Congo Red spectrum, Aβ1-40 incubated with inhibitor (Aβ1-40 fibrils; inhibition): identical to the control spectrum of Congo Red alone

CC(=O)N[C@@H](CCCCN)C(=O)N[C@@H](CC(C)C)C(=O)N(C)[C@H](C(=O)N[C@@H](Cc1ccccc1)C(=O)N(C)[C@@H](Cc1ccccc1)C(N)=O)C(C)C [Aβ16-20m2]
solubility in aqueous media (in words) [3]: highly soluble in aqueous media

CC(C)C[C@H](NC(=O)[C@@H](N)CCCCN)C(=O)N[C@H](C(=O)N[C@@H](Cc1ccccc1)C(=O)N[C@@H](Cc1ccccc1)C(=O)N[C@@H](C)C(=O)N[C@@H](CCC(=O)O)C(N)=O)C(C)C [Aβ16-22, NH2-KLVFFAE-CONH2] (H-KLVFFAE-NH2)
chymotrypsin digestion (chymotrypsin): cleaved by chymotrypsin
Inhibition of Fibrillogenesis ICmax (Aβ40): 23.0
Inhibition of Fibrilogenesis ICmax (Aβ40): 23.0%
effect on Aβ40 fibril formation (in words) (Aβ40): relatively modest inhibitory effect
inhibition of fibrillogenesis (Aβ40): 10-20%

CC(C)C[C@H](NC(=O)[C@@H](N)CCCCN)C(=O)N(C)[C@H](C(=O)N(C)[C@@H](Cc1ccccc1)C(=O)N(C)[C@@H](Cc1ccccc1)C(=O)N(C)[C@@H](C)C(=O)N[C@@H](CCC(=O)O)C(N)=O)C(C)C [Aβ16-22m(4), NH2-KL(me-V)(me-F)(me-F)(me-A)-E-CONH2] (H-KL[NMeV][NMeF][NMeF][NMeA]E-NH2)
Inhibition of Fibrillogenesis ICmax (Aβ40): 100
Inhibition of Fibrilogenesis ICmax (Aβ40): 100%
solubility in aqueous media (in words) [3]: highly soluble in water

CC(C)C[C@@H](C(=O)N[C@H](C(=O)N(C)[C@@H](Cc1ccccc1)C(=O)N[C@@H](Cc1ccccc1)C(=O)N(C)[C@@H](C)C(=O)N[C@@H](CCC(=O)O)C(N)=O)C(C)C)N(C)C(=O)[C@@H](N)CCCCN [Aβ16-22m, NH2-K(me-L)V(me-F)F(me-A)-E-CONH2] (H-K[NMeL]V[NMeF]F[NMeA]E-NH2)
fibrillar material by electron microscopy, inhibition samples (Aβ40 fibrils [4]): complete lack of fibrils
fibril formation by the peptide alone [2]: no fibrillar or aggregated material
chymotrypsin digestion (chymotrypsin): complete resistance; also recorded: highly resistant
Inhibition of Fibrillogenesis ICmax (Aβ40): 100
Inhibition of Fibrilogenesis ICmax (Aβ40): 100%
effect on Aβ40 fibril formation (in words) (Aβ40): prevented fibril formation of Aβ40 in a dose dependent manner
molar excess of inhibitor giving complete elimination of thioflavin fluorescence (complete inhibition) (Aβ40): > 30
solubility in aqueous media (in words) [3]: highly soluble in aqueous solutions; also recorded: highly soluble in aqueous media
solubility relative to unmethylated congener ([3]; physiological pH and ionic strength): 20-40 times

CC(C)C[C@@H](C(=O)N[C@H](C(=O)N(C)[C@@H](Cc1ccccc1)C(=O)N[C@@H](Cc1ccccc1)C(=O)N(C)[C@@H](C)C(=O)N[C@@H](CCCCN)C(N)=O)C(C)C)N(C)C(=O)[C@@H](N)CCC(=O)O [Aβ16-22mR, NH2-E(me-L)V(me-F)F(me-A)-K-CONH2] (H-E[NMeL]V[NMeF]F[NMeA]K-NH2)
Inhibition of Fibrillogenesis ICmax (Aβ40): 100
Inhibition of Fibrilogenesis ICmax (Aβ40): 100%
effect on Aβ40 fibril formation (in words) (Aβ40): prevented fibril formation of Aβ40 in a dose dependent manner
solubility in aqueous media (in words) [3]: highly soluble in aqueous solutions

CC(C)[C@H](NC(=O)[C@H](C(C)C)N(C)C(=O)[C@H](C)NC(=O)[C@H](C)NC(=O)[C@H](C)NC(=O)[C@H](C)N(C)C(=O)[C@H](C)NC(=O)CN)C(N)=O [PrPm, NH2-GA(me-A)AAA(me-V)V-CONH2] (H-GA[NMeA]AAA[NMeV]V-NH2)
Inhibition of Fibrillogenesis ICmax (Aβ40): 8.6
Inhibition of Fibrilogenesis ICmax (Aβ40): 8.6%
effect on Aβ40 fibril formation (in words) (Aβ40): no effect
